{"source": "patent US9586056B2", "about": "“Combination therapy for treating cancer and method for treating cancer using a combination therapy” (Haniva LLC, priority 2014, dated 2017)", "assay_type_in_all_cases": "cell-based", "key": {"[1]": {"system": "1205Lu melanoma cells", "experiment": "IC50 of tirapazamine for melanoma cells", "settings": "Homo sapiens"}, "[2]": {"system": "HIF1α", "experiment": "HIF1α expression under hypoxia (FIG. 14)", "text": "HIF1α is a transcription factor that enhances transcription of many metastasis related genes. The expression of HIF1α usually increases under hypoxic conditions."}, "[3]": {"system": "1205Lu plasmid (P)", "experiment": "Number of viable cells after treatment (FIG. 11)", "settings": "normoxia; tirapazamine at 28.5 μM", "method": "(§1) The cell lines shown in FIG. 11 include: 1205Lu plasmid (P), 1205Lu […]), 1205Lu-[…] (T). […] The cells were treated with non-thermal plasma (NTP), tirapazamine at 28.5 μM (TPZ), or the combination (NTP/TPZ). […] (T) but not for 1205Lu plasmid (P). […] Under […], all treatments (NTP, TPZ and NTP/TPZ) cause a decrease in cell number from the original number of cells (6×10^6) to approximately (3×10^6) for all melanoma cell lines. Under hypoxia, TPZ causes a decrease in cell number from the original number of cells (6×10^6) to approximately (1.2-0.6×10^5). Under hypoxia, NTP/TPZ causes a decrease from the original number of cells (6×10^6) to approximately (0.1-0.03×10^5). […] In addition, the target area of the NTP torch dramatically increases under these conditions. The ROS generated by NTP and tirapazamine induces the bystander effect and promotes the spreading of cell death signals well beyond the area of the plasma treatment. Upon treatment for 24 hours with NTP+/- tirapazamine at normal conditions (normoxia) or hypoxic conditions (hypoxia), the combination of NTP+/- tirapazamine enhances cell death under hypoxia. Furthermore, the area in which the plasma torch affects the cells increases only in the cells overexpressing the functional gap junctions."}, "[4]": {"system": "1205Lu-T154A (T)", "experiment": "Number of viable cells after treatment (FIG. 11)", "settings": "normoxia; tirapazamine at 28.5 μM", "method": "as §1"}, "[5]": {"system": "1205Lu C×43 (C)", "experiment": "Number of viable cells after treatment (FIG. 11)", "settings": "normoxia; tirapazamine at 28.5 μM", "method": "as §1"}, "[6]": {"system": "1205Lu cells", "experiment": "Photographic assessment of cell death (FIGS. 12 and 13)", "from_the_text": "The broken lines shown in FIGS. 12 and 13 demarcate live cells from dead cells. The portions shown with asterisks represent the dead cells."}}, "data": [{"smiles": "Nc1n[n+]([O-])c2ccccc2[n+]1[O-]", "note": "[TPZ, 3-Aminobenzo[e][1,2,4]triazine 1,4-dioxide]", "values": [{"measurement": "IC50", "setting": "[1]", "result": 28.5, "unit": "µM"}, {"measurement": "expression of HIF1α compared with control", "setting": "[2]; cell line C", "result": "decrease"}, {"measurement": "expression of HIF1α compared with control", "setting": "[2]; cell line P", "result": "increase"}, {"measurement": "expression of HIF1α compared with control", "setting": "[2]; cell line T", "result": "increase"}, {"measurement": "change in viable cells", "setting": "[3]", "result": "decrease in viable cells"}, {"measurement": "change in viable cells", "setting": "[4]", "result": "decrease in viable cells"}, {"measurement": "change in viable cells", "setting": "[5]", "result": "decrease in viable cells"}, {"measurement": "cell toxicity (FIG. 13)", "setting": "[6]; hypoxia", "result": "induces cell toxicity only under hypoxic conditions"}, {"measurement": "effect on cells (FIG. 12)", "setting": "[6]; normal oxygen conditions", "result": "no effect"}]}]}
